Peptide text beside a SMILES is read from it.
What was measured:
Assay type in all cases: cell-based, Zika virus
[1] = system: ZIKV strain MR766; assay: ZIKV RNA at 2-h post-infection in pre-treated human fetal astrocytes (early infection / entry); details: astrocytes treated with AMPs 2 h at 37°C, then ZIKV MOI 0.5 for 2 h; normalized to 18-s rRNA; N = 3
Description: Total mRNA was isolated with TRIzol Reagent (Thermo Fisher Scientific) and RNeasy Mini Kit (QIAGEN Inc., Valencia, CA, USA) following the manufacturer’s recommendations. Two real-time RT-PCR methods were used for the current studies. First, SYBR Green-based RT-PCR assay was used to determine intracellular ZIKV RNA in Vero cells. For this assay, reverse transcription was performed using Verso cDNA synthesis Kit (Thermo Fisher Scientific) and 1 µg of total RNA in a 15-µL final volume. The RT-PCR analyses were performed using 7.5-µL SYBR Green PCR Master Mix (Thermo Fisher Scientific) with 0.5-µL cDNA, 1.5-µL H2O, 5.5-µL oligonucleotide primer pairs at 10 µM. […] Relative ZIKV RNA levels were determined and standardized with a GAPDH internal control using comparative ΔΔCT method ([35]). […] Relative ZIKV mRNA levels were determined and standardized with a GAPDH or 18-s rRNA endogenous control using comparative ΔΔCT method ([35]). All reference genes, including GAPDH, β-actin, and 18-s rRNA, detected identical changes of genes (Figure S1 in Supplementary Material). […] Quantitative genomic RNA from ZIKV (NR-1838DQ, ATCC) was used as a standard to calculate viral copies. […]
(A) Primary human fetal astrocytes were pre-incubated at 4°C for half an hour and then treated with antimicrobial peptides along with ZIKV infection at the MOI of 0.5 for 2 h. […] ZIKV RNA was determined through real-time RT-PCR.

[2] = system: ZIKV strain MR766; assay: ZIKV virion levels in astrocyte supernatants, plaque-forming assay on Vero cells; details: human fetal astrocytes; peptide 0.4 to 10 µM pre-treatment; supernatants titrated on Vero cells
Description: (A) Human fetal astrocytes were treated with doses of the selected peptides ranging from 1 to 50 µM. After 24 h, the cultures were washed and treated with same doses of peptides in fresh medium for another 24 h. Cell viability was determined by a colorimetric MTS assay. Results shown are the averages ±SD of experiments performed in triplicate. Data were analyzed by nonlinear regression and assessed the EC50 for each of the antimicrobial peptides. (B–E) Astrocytes were treated with doses of antimicrobial peptides ranging from 0.4 to 10 µM for 2 h then infected with ZIKV at the MOI of 0.5. After 24 h, the cultures were washed and treated with same doses of antimicrobial peptides in fresh medium for another 24 h. At the experimental endpoint, intracellular ZIKV RNA (B) was determined through real-time RT-PCR in total cellular RNA. Data were normalized to GAPDH and presented as fold change (in log scale) compared with ZIKV group. Extracellular ZIKV RNA [(C), in log scale] was determined through real-time RT-PCR using total RNA isolated from cell-free supernatants. ZIKV virion levels (in log scale) were determined by adding cell-free culture supernatants to Vero cells and overlaid with Agar gel in viral PFA (D). Viral plaques were manually counted and calculated as PFU/mL (E). * p < 0.05, ** p < 0.01, and *** p < 0.001, as compared with the ZIKV group without peptide treatment (ANOVA, N = 3).

[3] = system: ZIKV strain MR766; assay: Post-infection peptide treatment of ZIKV-infected human fetal astrocytes (RT-PCR and plaque-forming assay); details: human fetal astrocytes infected MOI 0.5 for 24 h, then peptide 10 µM for 24 h, N = 4; for Zika virions after post-infection treatment (plaque-forming assay): cell-free supernatants; for ZIKV RNA after post-infection treatment, compared with untreated ZIKV group: normalized to GAPDH
Description: Vero cells were plated into 12-well plates at 5 (10^5 cells/well the day before infection). On the day of infection, the monolayers of Vero cells were inoculated with 100 µL of 10-fold serial dilutions of viral stocks and incubated at 37 °C for 1 h. After viral inoculation, medium containing ZIKV particles was removed and 1 ml overlay containing 0.6% molecular biology grade agarose (Agarose Unlimited, Alachua, FL, USA) in Modified Eagle Medium (Gibco) with 2% FBS. Cells were maintained at 37°C in 5% CO2 for 4 days. On day 5, cells were fixed with 4% paraformaldehyde solution in PBS and stained with 1% crystal violet solution in 20% methanol in water. Viral plaques were photographed using a CanonScan 9950F scanner and each plaque was counted as a plaque-forming unit (PFU). Viral titer was calculated as PFU/[volume virus (mL) × (dilution factor)].
Total mRNA was isolated with TRIzol Reagent (Thermo Fisher Scientific) and RNeasy Mini Kit (QIAGEN Inc., Valencia, CA, USA) following the manufacturer’s recommendations. Two real-time RT-PCR methods were used for the current studies. First, SYBR Green-based RT-PCR assay was used to determine intracellular ZIKV RNA in Vero cells. For this assay, reverse transcription was performed using Verso cDNA synthesis Kit (Thermo Fisher Scientific) and 1 µg of total RNA in a 15-µL final volume. The RT-PCR analyses were performed using 7.5-µL SYBR Green PCR Master Mix (Thermo Fisher Scientific) with 0.5-µL cDNA, 1.5-µL H2O, 5.5-µL oligonucleotide primer pairs at 10 µM. Primers used were ZIKV RNA: forward sequence 5-[…]-3, reverse sequence 5-[…]-3; GAPDH: forward sequence 5-[…]-3, reverse sequence 5-GGCTGT […] GG-3. PCR program: 1, 50°C for 2 min; 2, 95°C for 2 min; 3, 95°C for 15 s; 4, specific annealing temperature for 15 s; 5, 72°C for 1 min. Steps 2–4 were repeated 40 times. All samples were amplified in triplicate for analysis. Relative ZIKV RNA levels were determined and standardized with a GAPDH internal control using comparative ΔΔCT method ([35]). Second, TaqMan-based RT-PCR assay was used to determine intracellular ZIKV RNA and other gene expressions in Figures 3–6 and extracellular ZIKV RNA in Figure 3. […] Relative ZIKV mRNA levels were determined and standardized with a GAPDH or 18-s rRNA endogenous control using comparative ΔΔCT method ([35]). All reference genes, including GAPDH, β-actin, and 18-s rRNA, detected identical changes of genes (Figure S1 in Supplementary Material). […] Quantitative genomic RNA from ZIKV (NR-1838DQ, ATCC) was used as a standard to calculate viral copies. […]
Figure 4 Antimicrobial peptides treatment post-infection is still effective in inhibiting Zika virus (ZIKV) infection. […] (B–D) At 24-h post-antimicrobial peptide treatment, RNA was isolated from cells and ZIKV RNA was determined through real-time RT-PCR. […]

SMILES	ZIKV RNA at 2-h post-infection compared with untreated ZIKV group [1]	ZIKV virions (PFU/mL) in supernatants [2]	Zika virions after post-infection treatment (plaque-forming assay) [3]	ZIKV RNA after post-infection treatment, compared with untreated ZIKV group [3]
CC[C@H](C)[C@H](NC(=O)[C@H](CCCCN)NC(=O)[C@H](CCCCN)NC(=O)[C@H](Cc1ccccc1)NC(=O)[C@H](CC(C)C)NC(=O)[C@H](CCCCN)NC(=O)[C@H](CCCCN)NC(=O)[C@H](Cc1ccccc1)NC(=O)[C@H](CCCCN)NC(=O)[C@H](CCCCN)NC(=O)[C@H](CCCNC(=N)N)NC(=O)[C@H](Cc1ccccc1)NC(=O)[C@H](CCCNC(=N)N)NC(=O)[C@H](CCCCN)NC(=O)[C@H](Cc1ccccc1)NC(=O)[C@H](CCCNC(=N)N)NC(=O)CN)C(=O)N[C@@H](CO)C(=O)O [BMAP-18] (H-GRFKRFRKKFKKLFKKIS-OH; N-terminus and C-terminus assumed)	significantly decreased ZIKV RNA	ZIKV virions were reduced	fewer virions	trended downward; however, the difference was not significant
CC[C@H](C)[C@H](NC(=O)[C@H](CCCNC(=N)N)NC(=O)[C@H](CCC(N)=O)NC(=O)[C@@H](NC(=O)[C@@H](NC(=O)[C@H](CCCNC(=N)N)NC(=O)[C@H](CCCCN)NC(=O)[C@H](Cc1ccccc1)NC(=O)CN)[C@@H](C)CC)C(C)C)C(=O)N[C@@H](CCCCN)C(=O)N[C@@H](CC(=O)O)C(=O)N[C@@H](Cc1ccccc1)C(=O)N[C@@H](CC(C)C)C(=O)N[C@@H](CCCNC(=N)N)C(=O)N[C@@H](CC(N)=O)C(=O)N[C@@H](CC(C)C)C(=O)N[C@H](C(N)=O)C(C)C [GF-17] (H-GFKRIVQRIKDFLRNLV-NH2; N-terminus and C-terminus assumed)	significantly decreased ZIKV RNA	ZIKV virions were reduced	fewer virions	significantly decreased ZIKV RNA

From article PMC5906549, “Cathelicidin-Derived Antimicrobial Peptides Inhibit Zika Virus Through Direct Inactivation and Interferon Pathway” (Frontiers in Immunology, 2018)
